Measurements published in patent publication US20050208597A1, “Microarray analysis of post-translational modifications” (The Board of Trustees of the Leland Stanford Junior …, priority 2004, published 2005).

How the values were obtained:
Type in all cases: cell-based
[1] = test system: Akt (Ser473) phosphorylation; test: RPP microarray, phospho-specific antibody probing of cell lysates
Protocol: (§1) FIG. 2. Applications of reverse-phase protein microarrays. (A) Kinetics of PLCγ1 (Y783) phosphorylation in Jurkat T cells following stimulation with anti-CD3 (pink triangle), anti-CD28 (green circle), both antibodies (blue squares), or isotype control antibodies (empty squares) over 30 minutes. Left panel: Phosphorylation kinetics unadjusted for total PLCγ1 levels. Middle Panel: Total PLCγ1 levels. Right panel: Ratiometric data on phosphorylation kinetics (phospho-PLCγ1/total PLCγ1). See text for details. (B) Phosphorylation kinetics of four signaling proteins (PLCγ1, Akt, MEK1/2, and p44/42 MAPK) in wildtype Jurkat T cells (black square) and J.gamma1, a mutant Jurkat line deficient in PLCγ1 (empty circle), stimulated with both anti-CD3 and CD28 antibodies. […] Jurkats T cells were stimulated with either anti-CD3 or anti-CD28 antibodies in the presence of one of three kinase inhibitors (see text for details). Lysates were collected after 10 minutes of stimulation, spotted on slides, and probed with four phospho-specific antibodies. Representative spots of p-p44/42 MAPK and p-MEK1/2 are shown for anti-CD3 stimulated cells and p-Akt (Ser473) and p-PDK1 for anti-CD28 treated cells.
(§2) To fabricate the protein microarrays, we used a contact-printing robotic microarrayer to deliver nanoliter (˜6 nl) volumes of whole cell lysates onto nitrocellulose-coated slides. FAST slides (Schleicher and Schuell BioSciences, Dassel, Germany). Depending on the experimental setup, two different formats of FAST slides were used. In experiments where the number of samples was greater than the number of analytes measured, slides with a single pad capable of holding over 2000 lysate spots were used. In our screening experiments where the number of analytes exceeds the number of samples, we used slides carrying eight sectored pads or subarrays for multiplex analysis. Under our current configuration, a maximum of 24 spots can be fitted onto each individual pad (6 mm×6 mm).
(§3) For small-scale experiments, we used a precision 8-pin manual microarrayer system (Microcaster system from Schleicher & Schuell). […] The protein lysates dried within seconds of printing and were tightly bound to the nitrocellulose platform via electrostatic interactions.

MEK1/2 phosphorylation = test: as above
Protocol: as §1, §2, §3

PDK1 phosphorylation = test: as above; details: Jurkat cells stimulated through CD28 in the presence of the inhibitor; lysates after 10 minutes; one of the 'other 3 kinases' (named)
Protocol: as §1, §2, §3

[2] = test system: p44/42 MAPK phosphorylation; test: as above
Protocol: as §1, §2, §3

SLP-76 = test: RPP microarray, phosphorylation-state independent antibody; details: PMA treated vs untreated Jurkat T cells
Source text: (§4) FIG. 1. Protein microarray performance characteristics and validation. (A) Four purified antigens spotted in triplicate over six 2-fold dilutions starting at 900 pg per spot and probed with their corresponding antibodies. (B) Quantitative comparison between Western immunoblotting and protein microarray for measuring Hsp70 induction in heat-shocked Jurkat T cells. (C) Detection of changes in phosphorylation in signaling proteins in PMA treated vs. untreated Jurkat T cells. Corresponding immunoblots of the same samples are shown on the right. Antibodies specific for p44/42 MAPK, MEK1/2 and Akt are phosphorylation-state dependent. Antibodies for SLP-76 and β-actin are not dependent on phosphorylation.
(§5) To fabricate the protein microarrays, we used a contact-printing robotic microarrayer to deliver nanoliter (˜6 nl) volumes of whole cell lysates onto nitrocellulose-coated slides. […] In experiments where the number of samples was greater than the number of analytes measured, slides with a single pad capable of holding over 2000 lysate spots were used. […]
(§6) For small-scale experiments, we used a precision 8-pin manual microarrayer system (Microcaster system from Schleicher & Schuell). The resulting features measured approximately 500 μm in diameter. […] Bound primary antibodies were detected with a horseradish peroxidase (HRP)-linked secondary antibody. […]

β-actin = test: as above; details: PMA treated vs untreated Jurkat T cells
Source text: as §4, §5, §6

[3] = Jurkat cells stimulated through CD3 in the presence of the inhibitor, lysates after 10 minutes
[4] = PMA treated vs untreated Jurkat T cells

Row | Compound | phosphorylation of Akt (Ser473) ([1]; Jurkat cells stimulated through CD28 in the presence of the inhibitor, lysates after 10 minutes) | phosphorylation of MEK1/2 (MEK1/2 phosphorylation; [3]) | phosphorylation of PDK1 (PDK1 phosphorylation) | phosphorylation of p44/42 MAPK [2, 3] | phosphorylation of Akt/PKB [1, 4] | phosphorylation of MEK1/2 (MEK1/2 phosphorylation; [4]) | phosphorylation of p44/42 MAPK [2, 4] | abundance of SLP-76 (SLP-76) | abundance of β-actin (β-actin)
1 | N#CC(=C(/N)Sc1ccccc1N)/C(C#N)=C(\N)Sc1ccccc1N [U0126] | had no effect | had no effect | had no effect | specifically blocked | – | – | – | – | –
2 | CCCCCCCCCCCCCC(=O)O[C@@H]1[C@@H](C)[C@@]2(O)[C@@H](C=C(CO)C[C@]3(O)C(=O)C(C)=C[C@@H]23)[C@@H]2C(C)(C)[C@]12OC(C)=O [PMA, phorbol 12-myristate 13-acetate] | – | – | – | – | not significantly affected | rapid phosphorylation | rapid phosphorylation | no changes | no changes
